Laboratory results as given in patent US11583542B2, “Compositions of bile acids and phenylbutyrate compounds” (Amylyx Pharmaceuticals Inc., priority 2019, dated 2023).

Experiments:
Format in all cases: physicochemical
[1] = Bulk density, tapped density, Hausner ratio and Carr's index; settings: powder; calculated from bulk and tapped density
Protocol: Bulk density was calculated for each API and blend by gently pouring powder into a 25 mL graduated cylinder. Tapped density was calculated using a tapped volumeter to compact each powder using 100-tap increments until volume change was <5%. Hausner ratio and Carr's index were then calculated using bulk density and tapped density. Formulation C was selected based on flow characteristics. Carr's index, in addition to being a measure of compressibility, may also be used to determine the flow properties of a material. […] Acceptable flow property (as determined by the packaging equipment used) was a minimum of a Carr's index of under 25, with a Carr's index of below 20 being preferable.
Each API was blended and roller compacted with excipients separately to determine if the proximity of the dual APIs in the blend or granules was responsible for agglomeration. The resulting granules were then recombined and blended before filling test sachets. Bulk and tapped densities of each blend were measured prior to roller compaction. For this experiment, all silica were used at 1% W/W. Aerosil 200 was used as a negative control while Syloid 244FP and Syloid 63FP were used to remove moisture from the APIs to determine if APIs would agglomerate with reduced local levels of water. […]

[2] = Forced degradation studies (thermal, thermal-humidity, light, oxidation, acid, base); settings: for degradation of API: API alone
Source text: Each API and the final formulation (referred to as “AMX powder in sachet”) containing both APIs were also subjected to forced degradation studies. The study included stressing samples of PB (sodium phenylbutyrate) API, TURSO API, placebo, and AMX Powder in Sachet under thermal, thermal-humidity, light, oxidation, acid, or base conditions (Table 49).

[3] = Loss on Drying (LOD) testing; settings: excipients
Protocol: After storage in sealed bottles for about one week, slight agglomeration of blends was observed.
LOD testing was performed on recovered agglomerated blend (PD2016-015-33B) after ˜2 hours of drying at 50° C. to determine the degree of moisture uptake. Results were compared against a non-agglomerated blend that had been stored in a sealed bottle (PD2016-015-29A).

[4] = Dynamic Vapor Sorption (DVS) testing
Source text: Samples of NaPB, TURSO, and modified formulation C1 blend were subjected to DVS testing to determine the magnitude of weight gain due to humidity.

[5] = Base 3 Days (1.0N NaOH, 50° C.)
[6] = Base 7 Days (1.0N NaOH, 50° C.)
[7] = Thermal-Humidity (85° C. + 1.0 mL water, 10 days)

C[C@H](CCC(=O)NCCS(=O)(=O)O)[C@H]1CC[C@H]2[C@@H]3[C@@H](O)C[C@@H]4C[C@H](O)CC[C@]4(C)[C@H]3CC[C@]12C [TURSO, tauroursodeoxycholic acid]
Carr's index [1]: 24.2 | degradation of API ([2]; Thermal-Humidity condition): no TURSO peak was detected | degradation of API ([2]; acidic condition, by Day 7): degraded slightly | degradation of API ([2]; base condition, by Day 3): degraded slightly | degradation of API ([2]; base condition, by Day 7): ~17% | degradation of API ([2]; light condition): did not degrade | degradation of API ([2]; oxidation condition, by Day 3): degraded slightly | degradation of API ([2]; thermal condition): did not degrade | % Degradation Observed / Conclusion ([2]; Acid: 10 mL of 1.0N HCl per sample for 3 days at 50° C., listed as TURSO API): None | % Degradation Observed / Conclusion ([2]; Acid: 10 mL of 1.0N HCl per sample for 7 days at 50° C.): ~3% | % Degradation Observed / Conclusion ([2]; Base: 10 mL of 1.0N NaOH per sample for 3 days at 50° C.): ~5% | % Degradation Observed / Conclusion ([2]; Base: 10 mL of 1.0N NaOH per sample for 7 days at 50° C.): ~17% | % Degradation Observed / Conclusion ([2]; Light: 1 × ICH condition (White light NLT 1.2 million lux hours and UV light NLT 200 W hours/m^2), listed as TURSO API): None | % Degradation Observed / Conclusion ([2]; Oxidation: 10 mL of 3% H2O2 per sample, listed as TURSO API): 3% | % Degradation Observed / Conclusion ([2]; Thermal-Humidity: 85° C. + 1.0 mL water per sample for 10 days, listed as TURSO API): 100% | % Degradation Observed / Conclusion ([2]; Thermal: 85° C. for 10 days, listed as TURSO API): None

OC[C@@H](O)[C@@H](O)[C@H](O)[C@@H](O)CO [sorbitol]
water uptake by loss-on-drying (LOD) testing [3]: neither exhibited massive water uptake

C[C@H](CCC(=O)NCCS(=O)(=O)O)[C@H]1CC[C@H]2[C@@H]3[C@@H](O)C[C@@H]4C[C@H](O)CC[C@]4(C)[C@H]3CC[C@]12C [TUDCA API]
% RMBD, TUDCA ([2]; Acid 3 Days (1.0N HCl, 50° C.)): 99.8% | % TUDCA / % (TUDCA) Potency ([2]; Acid 3 Days (1.0N HCl, 50° C.)): 100.0% | % TUDCA remaining ([2]; Acid 3 Days (1.0N HCl, 50° C.)): 99.8% | % Total RS / % Total TUDCA Impurity ([2]; Acid 3 Days (1.0N HCl, 50° C.)): 0.23% | Sum / TUDCA Sum ([2]; Acid 3 Days (1.0N HCl, 50° C.)): 100.23 | % RMBD, TUDCA ([2]; Acid 7 Days (1.0N HCl, 50° C.)): 97.0% | % TUDCA / % (TUDCA) Potency ([2]; Acid 7 Days (1.0N HCl, 50° C.)): 97.2% | % TUDCA remaining ([2]; Acid 7 Days (1.0N HCl, 50° C.)): 97.0% | % Total RS / % Total TUDCA Impurity ([2]; Acid 7 Days (1.0N HCl, 50° C.)): 0.20% | Sum / TUDCA Sum ([2]; Acid 7 Days (1.0N HCl, 50° C.)): 97.40 | % Degradation Observed / Conclusion ([2]; Acid: 10 mL of 1.0N HCl per sample for 3 days at 50° C.): No significant | % RMBD, TUDCA [2, 5]: 94.9% | % TUDCA / % (TUDCA) Potency [2, 5]: 95.1% | % TUDCA remaining [2, 5]: 94.9% | % Total RS / % Total TUDCA Impurity [2, 5]: 0.22% | Sum / TUDCA Sum [2, 5]: 95.32 | % RMBD, TUDCA [2, 6]: 82.6% | % TUDCA / % (TUDCA) Potency [2, 6]: 82.8% | % TUDCA remaining [2, 6]: 82.6% | % Total RS / % Total TUDCA Impurity [2, 6]: 0.18% | Sum / TUDCA Sum [2, 6]: 82.98 | % TUDCA / % (TUDCA) Potency ([2]; Control): 100.2% | % Total RS / % Total TUDCA Impurity ([2]; Control): 0.22% | Sum / TUDCA Sum ([2]; Control): 100.42. | % RMBD, TUDCA ([2]; Light (1 × ICH condition)): 103.2% | % TUDCA / % (TUDCA) Potency ([2]; Light (1 × ICH condition)): 99.5% | % TUDCA remaining ([2]; Light (1 × ICH condition)): 103.2% | % Total RS / % Total TUDCA Impurity ([2]; Light (1 × ICH condition)): 0.24% | Sum / TUDCA Sum ([2]; Light (1 × ICH condition)): 99.74 | % TUDCA / % (TUDCA) Potency ([2]; Light Control): 96.4% | % Total RS / % Total TUDCA Impurity ([2]; Light Control): 0.22% | Sum / TUDCA Sum ([2]; Light Control): 96.62 | % Degradation Observed / Conclusion ([2]; Light: 1 × ICH condition (White light NLT 1.2 million lux hours and UV light NLT 200 W hours/m^2)): No significant | % RMBD, TUDCA ([2]; Oxidation (3% H2O2)): 98.8% | % TUDCA / % (TUDCA) Potency ([2]; Oxidation (3% H2O2)): 97.1% | % TUDCA remaining ([2]; Oxidation (3% H2O2)): 93.9% | % Total RS / % Total TUDCA Impurity ([2]; Oxidation (3% H2O2)): 1.36% | Sum / TUDCA Sum ([2]; Oxidation (3% H2O2)): 98.46 | % Degradation Observed / Conclusion ([2]; Oxidation: 10 mL of 3% H2O2 per sample): ~3% | % RMBD, TUDCA ([2]; Thermal (85° C., 10 days)): 100.5% | % TUDCA / % (TUDCA) Potency ([2]; Thermal (85° C., 10 days)): 100.6% | % TUDCA remaining ([2]; Thermal (85° C., 10 days)): 100.4% | % Total RS / % Total TUDCA Impurity ([2]; Thermal (85° C., 10 days)): 0.28% | Sum / TUDCA Sum ([2]; Thermal (85° C., 10 days)): 100.88 | % RMBD, TUDCA [2, 7]: 0.0% | % TUDCA remaining [2, 7]: 0% | Sum / TUDCA Sum [2, 7]: 0.00 | % Degradation Observed / Conclusion ([2]; Thermal-Humidity: 85° C. + 1.0 mL water per sample for 10 days): Full degradation/ | % Degradation Observed / Conclusion ([2]; Thermal: 85° C. for 10 days): No significant

O=C(O)CCCc1ccccc1 [NaPB, sodium phenylbutyrate]
Carr's index [1]: 39.2 | degradation of API ([2]; any of the forced degradation conditions studied): did not degrade | % PB / % (PB) Potency ([2]; Acid 3 Days (1.0N HCl, 50° C.)): 99.1% | % PB remaining ([2]; Acid 3 Days (1.0N HCl, 50° C.)): 99.9% | % RMBD (Relative Mass Balance Deficit), PB ([2]; Acid 3 Days (1.0N HCl, 50° C.)): 99.0% | % Total RS / % Total PB Impurity ([2]; Acid 3 Days (1.0N HCl, 50° C.)): 1.18% | Mass Balance / PB Sum ([2]; Acid 3 Days (1.0N HCl, 50° C.)): 100.28 | % PB / % (PB) Potency ([2]; Acid 7 Days (1.0N HCl, 50° C.)): 99.7% | % PB remaining ([2]; Acid 7 Days (1.0N HCl, 50° C.)): 100.5% | % RMBD (Relative Mass Balance Deficit), PB ([2]; Acid 7 Days (1.0N HCl, 50° C.)): 99.6% | % Total RS / % Total PB Impurity ([2]; Acid 7 Days (1.0N HCl, 50° C.)): 1.14% | Mass Balance / PB Sum ([2]; Acid 7 Days (1.0N HCl, 50° C.)): 100.84 | % PB remaining [2, 5]: 99.7% | % RMBD (Relative Mass Balance Deficit), PB [2, 5]: 98.8% | % Total RS / % Total PB Impurity [2, 5]: 1.11% | Mass Balance / PB Sum [2, 5]: 100.01 | % PB / % (PB) Potency [2, 6]: 99.8% | % PB remaining [2, 6]: 100.6% | % RMBD (Relative Mass Balance Deficit), PB [2, 6]: 99.6% | % Total RS / % Total PB Impurity [2, 6]: 1.10% | Mass Balance / PB Sum [2, 6]: 100.90 | % PB / % (PB) Potency ([2]; Control): 99.2% | % Total RS / % Total PB Impurity ([2]; Control): 2.07% | Mass Balance / PB Sum ([2]; Control): 101.27 | % PB / % (PB) Potency ([2]; Light (1 × ICH condition)): 98.3% | % PB remaining ([2]; Light (1 × ICH condition)): 99.3% | % RMBD (Relative Mass Balance Deficit), PB ([2]; Light (1 × ICH condition)): 99.1% | % Total RS / % Total PB Impurity ([2]; Light (1 × ICH condition)): 0.74% | Mass Balance / PB Sum ([2]; Light (1 × ICH condition)): 99.04 | % PB / % (PB) Potency ([2]; Light Control): 99.0% | % Total RS / % Total PB Impurity ([2]; Light Control): 0.96% | Mass Balance / PB Sum ([2]; Light Control): 99.96 | % PB remaining ([2]; Oxidation (3% H2O2)): 99.4% | % RMBD (Relative Mass Balance Deficit), PB ([2]; Oxidation (3% H2O2)): 100.5% | % Total RS / % Total PB Impurity ([2]; Oxidation (3% H2O2)): 3.13% | Mass Balance / PB Sum ([2]; Oxidation (3% H2O2)): 101.73 | % PB / % (PB) Potency ([2]; Thermal (85° C., 10 days)): 98.9% | % PB remaining ([2]; Thermal (85° C., 10 days)): 99.7% | % RMBD (Relative Mass Balance Deficit), PB ([2]; Thermal (85° C., 10 days)): 101.5% | % Total RS / % Total PB Impurity ([2]; Thermal (85° C., 10 days)): 3.93% | Mass Balance / PB Sum ([2]; Thermal (85° C., 10 days)): 102.83 | % PB / % (PB) Potency [2, 7]: 99.3% | % PB remaining [2, 7]: 100.1% | % RMBD (Relative Mass Balance Deficit), PB [2, 7]: 99.2% | % Total RS / % Total PB Impurity [2, 7]: 1.16% | Mass Balance / PB Sum [2, 7]: 100.48 | DVS change in mass ([4]; above 45% RH): massive fluctuations in mass | Fluctuations in mass ([4]; moisture uptake): up to 50%
